Assay results: ChEMBL document CHEMBL5352417, “Design, synthesis, and biological evaluation of aromatic tertiary amine derivatives as selective butyrylcholinesterase inhibitors for the treatment of Alzheimer's disease” (Eur J Med Chem, 2022)
The source made the active and inactive calls. No cut-off for these calls is given here.

Tests used:
[1] = biological target: Acetylcholinesterase (Electrophorus electricus) (UniProt O42275); assay: Inhibition of electric eel AchE using acetylthiocholine iodide as substrate at <10 uM measured for 3 mins by Ellman's method relative to control
Chain of Acetylcholinesterase (Electrophorus electricus) (O42275 24-633 limits assumed): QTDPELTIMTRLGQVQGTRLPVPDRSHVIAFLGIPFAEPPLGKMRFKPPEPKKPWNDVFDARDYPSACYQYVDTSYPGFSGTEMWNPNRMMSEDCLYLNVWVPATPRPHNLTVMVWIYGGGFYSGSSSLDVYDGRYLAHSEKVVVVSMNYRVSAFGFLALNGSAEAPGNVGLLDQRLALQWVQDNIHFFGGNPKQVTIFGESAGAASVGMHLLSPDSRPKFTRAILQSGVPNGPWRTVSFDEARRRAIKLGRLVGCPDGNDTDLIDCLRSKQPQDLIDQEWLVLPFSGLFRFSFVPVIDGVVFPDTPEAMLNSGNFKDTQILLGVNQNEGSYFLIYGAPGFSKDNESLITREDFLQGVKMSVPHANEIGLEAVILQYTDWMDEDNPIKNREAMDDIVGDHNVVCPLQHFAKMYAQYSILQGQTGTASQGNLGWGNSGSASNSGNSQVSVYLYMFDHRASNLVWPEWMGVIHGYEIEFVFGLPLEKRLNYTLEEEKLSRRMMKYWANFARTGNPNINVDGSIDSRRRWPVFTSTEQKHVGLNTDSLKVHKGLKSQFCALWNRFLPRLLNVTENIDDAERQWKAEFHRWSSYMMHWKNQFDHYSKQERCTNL

[2] = biological target: Cholinesterase (Equus caballus) (UniProt P81908); assay: Inhibition of horse serum BuChE using butyrylthiocholine iodide as substrate at <10 uM measured for 3 mins by Ellman's method relative to control; type: cell-free
Chain of Cholinesterase (Equus caballus) (P81908 whole entry): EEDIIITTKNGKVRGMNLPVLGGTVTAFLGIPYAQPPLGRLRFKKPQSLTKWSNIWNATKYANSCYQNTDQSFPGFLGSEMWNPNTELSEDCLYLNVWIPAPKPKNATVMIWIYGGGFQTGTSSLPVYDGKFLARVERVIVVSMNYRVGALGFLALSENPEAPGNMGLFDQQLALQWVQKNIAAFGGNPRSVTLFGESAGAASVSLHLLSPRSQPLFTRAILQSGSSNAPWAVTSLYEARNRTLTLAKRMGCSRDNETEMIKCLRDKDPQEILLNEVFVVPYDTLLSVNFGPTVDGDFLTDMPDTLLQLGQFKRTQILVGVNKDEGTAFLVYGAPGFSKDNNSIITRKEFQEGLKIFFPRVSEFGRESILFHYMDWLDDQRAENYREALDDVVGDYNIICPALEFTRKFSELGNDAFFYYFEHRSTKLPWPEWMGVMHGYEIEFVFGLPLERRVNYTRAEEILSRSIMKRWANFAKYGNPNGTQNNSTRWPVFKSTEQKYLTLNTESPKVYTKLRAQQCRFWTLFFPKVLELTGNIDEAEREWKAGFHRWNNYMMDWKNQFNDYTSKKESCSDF

Cholinesterase [3] = biological target: Cholinesterase (Equus caballus, UniProt P81908); assay: Inhibition of horse serum BuChE using butyrylthiocholine iodide as substrate measured for 3 mins by Ellman's method; type: cell-free
Chain of Cholinesterase (Equus caballus, UniProt P81908) (P81908 whole entry): as above

Cholinesterase [4] = biological target: T1, Cholinesterase (Homo sapiens, UniProt P06276); assay: Inhibition of human BChE using butyrylthiocholine iodide as substrate measured for 3 mins by Ellman's method
T1 sequence (P06276 whole entry): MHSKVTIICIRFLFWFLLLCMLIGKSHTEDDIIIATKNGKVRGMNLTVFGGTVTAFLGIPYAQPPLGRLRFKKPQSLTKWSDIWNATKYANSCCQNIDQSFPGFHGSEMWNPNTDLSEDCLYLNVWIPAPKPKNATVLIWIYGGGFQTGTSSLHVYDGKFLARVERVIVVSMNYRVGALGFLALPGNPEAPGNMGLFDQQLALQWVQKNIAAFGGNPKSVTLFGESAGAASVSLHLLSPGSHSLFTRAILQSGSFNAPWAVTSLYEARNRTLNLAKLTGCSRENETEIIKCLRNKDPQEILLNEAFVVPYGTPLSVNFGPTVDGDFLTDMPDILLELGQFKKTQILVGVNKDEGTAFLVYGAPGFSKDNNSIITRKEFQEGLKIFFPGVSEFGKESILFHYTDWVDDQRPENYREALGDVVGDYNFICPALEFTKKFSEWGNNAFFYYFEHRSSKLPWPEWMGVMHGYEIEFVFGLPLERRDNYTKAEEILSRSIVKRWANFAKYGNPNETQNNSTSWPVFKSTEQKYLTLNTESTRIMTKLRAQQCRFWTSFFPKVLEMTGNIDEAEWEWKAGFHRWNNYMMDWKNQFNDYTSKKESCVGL

Cholinesterase [5] = biological target: T1, Cholinesterase; assay: Non-competitive inhibition of BChE (unknown origin) using butyrylthiocholine iodide as substrate upto 400 nM measured for 5 mins by Lineweaver-Burk plot analysis
[6] = Effective permeability of compound at 25 ug/ml incubated for 18 hrs by PAMPA-BBB assay; type: ADME; settings: dose 25 µg/ml, read-out: Peff
[7] = Neurotoxicity against rat PC12 cells incubated for 24 hrs by MTT assay; type: toxicity, cell-based, PC-12; settings: read-out: LD50
[8] = Neurotoxicity against human SH-SY5Y cells assessed as survival rate incubated for 24 hrs by MTT assay relative to control; type: toxicity, cell-based; design: concentration or dose not given beside the values; settings: read-out: Survival
[9] = Neurotoxicity against mouse BV-2 cells incubated for 24 hrs by MTT assay; type: toxicity, cell-based; settings: read-out: LD50
[10] = Neurotoxicity against mouse HT-22 cells incubated for 24 hrs by MTT assay; type: toxicity, cell-based; settings: read-out: LD50
SH-SY5Y = assay: Neuroprotective activity against amyloid beta (1 to 42)-induced injury in human SH-SY5Y cells assessed as cell viability by MTT assay; type: functional, cell-based; settings: dose 0.5-50 µM
[11] = Acute toxicity in fasted ICR mouse assessed as animal death at 1 g/kg, po followed by food supply after 2 hrs post compound administration measured for 14 days; type: organism-based; settings: in vivo, 1000 mg/kg, 336 h, time 14 day
[12] = Acute toxicity in fasted ICR mouse assessed as change in animal growth at 1 g/kg, po administered on day 1 followed by food supply after 2 hrs post compound administration measured after few days after first day administration; type: organism-based; settings: in vivo, 1000 mg/kg
[13] = Acute toxicity in fasted ICR mouse assessed as obvious toxicity at 1 g/kg, po followed by food supply after 2 hrs post compound administration measured for 14 days; type: organism-based; settings: in vivo, 1000 mg/kg, 336 h, time 14 day
Mus musculus [14] = assay: Antialzheimer activity against amyloid beta (1 to 42)-induced mouse model of cognitive dysfunction assessed as latency time at 15 mg/kg, po measured for 14 days by Morris Water maze method; type: functional, ICR; settings: time 14 day
Mus musculus [15] = assay: Antialzheimer activity against amyloid beta (1 to 42)-induced mouse model of cognitive dysfunction assessed as reaching target platform at 15 mg/kg, po measured for 14 days by Morris Water maze method; type: functional, organism-based; settings: ICR, time 14.0 day

**Q.** With `Cc1ccccc1NC(=O)CN(Cc1ccc2ccccc2c1)CC(C)C` as the molecule, how does the inhibition [1] read?
**A.** 22.2%

**Q.** And the inhibition [2]?
**A.** 94.3%

**Q.** And the IC50 (Cholinesterase [3])?
**A.** 0.22 µM

**Q.** And the IC50 (Cholinesterase [4])?
**A.** 0.016 µM

**Q.** And the inhibition (Cholinesterase [5])?
**A.** Active

**Q.** What about the Papp at 18 h, 25 ug/ml [6] of the same molecule?
**A.** 13.1 ×10⁻⁶ cm/s

**Q.** And the CC50 at 24 h [7]?
**A.** 78.8 µM

**Q.** And the viability at 24 h [8]?
**A.** 47.8%

**Q.** And the CC50 at 24 h [9]?
**A.** 39.3 µM

**Q.** And the CC50 at 24 h [10]?
**A.** 18.9 µM

**Q.** And the Activity (SH-SY5Y)?
**A.** Dose-Dependent Effect

**Q.** And the Activity [11]?
**A.** Non-Toxic

**Q.** What about the Activity [12] of the same molecule?
**A.** Toxic

**Q.** And the Activity [13]?
**A.** Non-Toxic

**Q.** And the Time (Mus musculus [14])?
**A.** 11.4 s

**Q.** What about the Activity (Mus musculus [15]) of the same molecule?
**A.** Active
